Data from paper PMC9347360 (RSC Chemical Biology, 2022).
Where a SMILES comes first, the peptide text is derived from it.

Experiments:
[1] = biological target: T1, wild type BRD1-BD (Homo sapiens, UniProt O95696); experiment: ITC binding to wild type BRD1 bromodomain
T1 sequence (O95696 562-666 limits assumed): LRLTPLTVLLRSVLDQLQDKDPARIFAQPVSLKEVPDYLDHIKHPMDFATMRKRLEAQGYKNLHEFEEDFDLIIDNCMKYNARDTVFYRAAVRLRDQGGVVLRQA

[2] = biological target: BRD4-BD1; experiment: ITC binding to BRD4-BD1; conditions: BRD4-BD1 Kd (ref 36) compared to that of BRD1-BD
[3] = biological target: BRD4-BD1; conditions: as measured previously; cited from earlier work

For `CC(=O)NCCCC[C@H](NC(=O)CNC(=O)[C@H](C)NC(=O)[C@H](C)NC(=O)[C@H](CCCCNC(C)=O)NC(=O)[C@H](C)N)C(=O)N[C@@H](CC(C)C)C(=O)N[C@@H](CCCCNC(C)=O)C(=O)N[C@@H](C)C(N)=O` [peptide 6] (H-AK(Ac)AAGK(Ac)LK(Ac)A-NH2), the Kd [1] is listed as 24.5 ± 11.7 µM, the “Kd for BRD4-BD1 relative to BRD1-BD (fold higher)” value [2] is listed as “about 15 fold” and the Kd [3] is listed as 353 µM.
